# Assay results: patent US6034236A, “Method for producing of phthalocyanine compound” (Nippon Shokubai Co., Ltd., priority 1997, dated 2000)
# What was measured:
# [1] = Visible absorption spectrum (largest absorption wavelength, ε); type: physicochemical
# [2] = Solubility in 2-ethoxyethanol
Compound,"Visible absorption spectrum, Thin film [1] [nm]",Largest absorption wavelength in 2-ethoxyethanol [1] [nm],ε at largest absorption wavelength in 2-ethoxyethanol [1],further results
"Fc1c(F)c(F)c2c(c1F)-c1nc-2nc2[n-]c(nc3nc(nc4[n-]c(n1)c1c(F)c(F)c(F)c(F)c41)-c1c(F)c(F)c(F)c(F)c1-3)c1c(F)c(F)c(F)c(F)c21.[O]=[V+2] [Example 7, hexadecafluorovanadyl phthalocyanine]",,,,Largest absorption wavelength in 1-chloronaphthalene [1]: 710.2 nm; ε at largest absorption wavelength in 1-chloronaphthalene [1]: 1.89 × 10^5; Largest absorption wavelength in 1-chloronaphthalene ([1]; listed as Example 8): 710.1 nm; ε at largest absorption wavelength in 1-chloronaphthalene ([1]; listed as Example 8): 1.77 × 10^5
"Clc1c(Cl)c(Cl)c2c(c1Cl)-c1nc-2nc2[n-]c(nc3nc(nc4[n-]c(n1)c1c(Cl)c(Cl)c(Cl)c(Cl)c41)-c1c(Cl)c(Cl)c(Cl)c(Cl)c1-3)c1c(Cl)c(Cl)c(Cl)c(Cl)c21.[O]=[V+2] [Example 12, hexadecachlorovanadylphthalocyanine]",,,,Largest absorption wavelength in 1-chloronaphthalene [1]: 712.4 nm; ε at largest absorption wavelength in 1-chloronaphthalene [1]: 1.65 × 10^5
"[O]=[Ti+2].c1ccc2c(c1)-c1nc-2nc2[n-]c(nc3nc(nc4[n-]c(n1)c1ccccc41)-c1ccccc1-3)c1ccccc21 [Example 13, titanylphthalocyanine]",,,,Largest absorption wavelength in 1-chloronaphthalene [1]: 710.5 nm; ε at largest absorption wavelength in 1-chloronaphthalene [1]: 1.33 × 10^5
octakisphenylthiooctafluorovanadyl phthalocyanine [Example 10],,,,Largest absorption wavelength in toluene ([1]; in toluene): 770 nm
octaphenoxyoctafluorovanadyl phthalo-cyanine [Example 11],,,,Largest absorption wavelength in acetone ([1]; in acetone): 720 nm
"tetrakis(2-(1,3-dibromo-2-propoxy)-carbonyl-6-phenylphenoxy)dodecafluorovanadyl phthalocyanine [Example 2]",731.6,714.5,1.75 × 10^5,
tetrakis(2-(2-ethoxyethoxy) dodecafluorovanadyl phthalocyanine [Example 14],,709.0,1.26 × 10^5,
tetrakis(2-(2-ethoxyethoxy)carbonyl-6-methoxyphenoxy)dodecafluorovanadyl phthalocyanine [Example 6],733.0,715.2,1.37 × 10^5,Solubility in 2-ethoxyethanol [2]: 13 wt. %
tetrakis(2-(2-methoxyethoxy)carbonyl-6-methylphenoxy)dodecachlorovanadyl phthalocyanine [Example 9],732.0,712.5,1.10 × 10^5,
tetrakis(2-(2-methoxyethoxy)carbonyl-6-methylphenoxy)dodecafluorovanadyl phthalocyanine [Example 5],732.8,710.4,1.32 × 10^5,
tetrakis(2-(2-methoxyethoxy)carbonyl-6-phenylphenoxy)dodecafluorovanadyl phthalocyanine [Example 3],730.6,713.7,1.42 × 10^5,
tetrakis(2-(2-propoxy)carbonyl-6-phenylphenoxy)dodecafluorovanadyl phthalocyanine [Example 1],732.2,715.0,1.52 × 10^5,
tetrakis(2-(2-tetrahydrofurfuryloxy)-carbonyl-6-phenylphenoxy)dodecafluorovanadyl phthalocyanine [Example 4],732.3,714.7,1.22 × 10^5,
